Test results from PMC9582434, “Ryanodine receptor-active non-dioxin-like polychlorinated biphenyls cause neurobehavioral deficits in larval zebrafish” (Frontiers in Toxicology, 2022).
Entries after “also recorded” stand apart in the source; their conditions may differ.

What was measured:
[1] = test system: RYR paralogs found in zebrafish skeletal muscle; test: [3H]ryanodine ligand binding assay, adult zebrafish tail muscle microsomes; conditions: for Max. response SEM (%): maximum [3H]Ry binding response compared to DMSO control, mean ± SEM; for EC50: relative EC50, concentration causing half-maximum response, PCB 0.1–50 μM; for RYR activity (in words): zebrafish muscle; for EC2X: concentration causing two-fold induction in ligand binding vs DMSO control
Experimental: Sensitization of the zebrafish RYR by ortho-PCBs was measured using [^3H]ryanodine ([^3H]Ry) ligand binding assays as previously described ([Fritsch and Pessah, 2013]). Briefly, crude microsomal protein preparations were created from the tail (post dorsal fin) muscle (primarily white skeletal muscle) of six adult zebrafish (∼1 year old) that was homogenized in a buffer containing 320 mM sucrose, 5 mM HEPES, 1 mM PMSF, 10 mM NaF, 2 mM β-Glycerol, 5 mM Na4P2O7, 0.5 mM Na3VO4 and 2 μg/L leupeptin (pH 7.2). The homogenate was centrifuged at 5,000 × g (4°C) for 15 min. The pellet was re-homogenized in 5 ml homogenization buffer and centrifuged at 5,000 × g. Supernatants were combined for ultracentrifugation at 100,000 g (4°C for 1 h). The resultant pellet was re-suspended in a buffer of 320 mM sucrose and 5 mM HEPES (Sigma-Aldrich, St. Louis, MO, United States) at pH 7.2. Protein concentrations were determined in triplicate using a BCA Assay (Fisher Scientific, Waltham, MA, United States). [^3H]Ry ligand binding assays were conducted with 40 μg/ml of the crude protein homogenate in the presence of DMSO (0.5%) or 0.1–50 μM of individual PCB congeners in 0.5% DMSO. Tests were run using 5 nM [^3H]Ry (Perkin Elmer Waltham, MA, United States), 250 mM KCl, 20 mM HEPES, 15 mM NaCl, and 50 μM CaCl2 (pH 7.1) and incubated for 16 h at 25°C. Non-specific binding was determined with the addition of 10 µM ryanodine (Tocris Bioscience, Bristol, United Kingdom) and 200 μM EGTA (Sigma-Aldrich, St. Louis, MO, United States). Assays were terminated by rapid filtration through Whatman GF/B filter paper (Brandel, Gaithersburg, MD, United States) and washed with ice-cold buffer containing 140 mM KCl, 10 mM HEPES, and 0.1 mM CaCl2, pH 7.4. Bound radioligand was measured by liquid scintillation counting (Beckman Coulter, Indianapolis, IN, United States). PCB-induced [^3H]Ry binding was assessed in two different protein preparations, and each assay was run in triplicate. Individual PCB concentration-response curves were determined using non-linear regression (GraphPad Prism 6.0, GraphPad Software Inc., San Diego, CA, United States).

larval zebrafish [2] = test: Larval photomotor behavior test (light/dark locomotor test); format: in vivo; conditions: for Behavior score (total change from control): sum of absolute [1 − (AUC value/DMSO)] over all concentrations, epochs and 3, 4, 5 dpf; for distance traveled relative to vehicle control: on average across larval ages
Experimental: At 4 hpf, embryos were treated with 50 µl of 41 mg/ml protease from Streptomyces griseus (P5147, Sigma-Aldrich, St. Louis, MO, United States) in 25 ml of FW for a maximum of 6 min to remove the chorion ([Truong et al., 2011]). At 5 hpf, embryos were placed in individual wells of 96-well plates filled with 100 µl of EM. At 6 hpf, embryos were exposed to a 2× concentration of the selected PCB congeners or controls that were diluted in 100 μl EM to produce a 1× concentration in a total of 200 µl solution. […] After exposure, plates were covered with Parafilm M (Bemis NA, Neenah, WI, United States) to reduce evaporation and placed in an incubator at 28.5°C with 14 h light (∼300 lux)/10 h dark cycles. Final DMSO concentrations were 0.2% (vol/vol) for all exposures. Fish were statically exposed until 5 dpf.
Larval locomotor tests were performed at 3, 4, and 5 dpf. Vehicle and PCB-exposed larvae in 96-well plates were placed in a DanioVision behavior system (Noldus Information Technology, Leesburg, VA, United States) and subjected to a 35 min light/dark locomotor test. System and plate temperature were maintained at 28.5 ± 0.5°C using a temperature control unit from Noldus. The testing paradigm consisted of a 10 min light period (∼1,900 lux) to allow for acclimation (5 min) and to record baseline swimming (5 min). This was followed by a 5 min dark period (∼0 lux) to stimulate increased swimming behavior and a 5 min light period (∼1,900 lux) to stimulate freezing behavior. The last 15 min consisted of a dark period (∼0 lux) to observe increased swimming behavior and acclimation to the dark conditions.
The distance traveled binned per minute by each larva during the 35-min observation test period was recorded via continuous tracing using a DanioVision system camera with an infrared filter to allow recording in both light and dark conditions. Movement was tracked using EthoVisionXT software (Noldus Information Technology) and exported to Excel and Prism 6.0 (GraphPad Software) for analysis and visualization. Dead and/or malformed larvae (as noted by observation under dissecting scope) were excluded from the behavior analysis.
The trapezoidal rule was used to compute the area under the curve (AUC) for each fish per day per lighting condition. The first 5 min of the 35-min observation period was removed to account for initial acclimation. Therefore, data were analyzed for the following time epochs: Light 1 (L1) = 6–10 min, Dark 1 (D1) = 11–15 min, Light 2 (L2) = 16–20 min, and Dark 2 (D2) = 21–35 min. Mixed effects regression models, including zebrafish-specific random effects, were used to assess differences between groups. DMSO groups from each spawn date (≥3 independent spawns) and plate were combined in the analysis. Separate models were fit for each congener. New variables were defined to capture differences in the AUC between Light 1 and Dark 1, Dark 1 and Light 2, and Light 2 and Dark 2, to measure change in distance traveled when transitioning from light to dark or dark to light. Contrasts were specified to compare these transitions and the AUC during each of the lighting conditions between the exposed groups and the DMSO control group. […] Due to some zeroes in the AUC, all values were shifted by 0.1 prior to taking the natural logarithm. Concentration (0.1, 0.3, 1, 3, 10 µM and DMSO), day (3, 4, 5 dpf), and the transition variables were all of interest in the models, including their interactions. Akaike information criterion was used for model selection and Wald tests for comparing groups. All analyses were conducted using SAS version 9.4.
The neurotoxic potential of the congeners tested in this study were ranked based on the three endpoints measured in this study: RYR binding, behavior, and body burden. Congeners were ranked relative to each other for each individual endpoint from 1 (highest) to 6 (lowest), and then the three scores for each congener averaged to obtain an overall relative ranking for each congener. […]

larval zebrafish [3] = conditions: exposure commenced shortly after fertilization; ref Ranasinghe et al., 2020; cited from earlier work

| Compound | concentration failing to cause a 2-fold (EC2X) increase in channel activity [1] | Max. response SEM (%) [1] [%] | EC50 [1] [µM] | RYR activity (in words) [1] | distance moved relative to vehicle control (larval zebrafish [2]; 0.3 µM, 4 dpf, L1) | distance moved relative to vehicle control (larval zebrafish [2]; 3 µM, 3 dpf, D2) | distance moved relative to vehicle control (larval zebrafish [2]; 10 µM, 3 dpf, D2) | Behavior score (total change from control) (larval zebrafish [2]) | EC2X [1] | distance moved relative to vehicle control (larval zebrafish [2]; 3 µM, 3 dpf, L2) | L1-D1 transition relative to vehicle control (larval zebrafish [2]; 3 µM, 5 dpf) | distance moved relative to vehicle control (larval zebrafish [2]; 3 µM, 5 dpf, L1) | distance moved relative to vehicle control (larval zebrafish [2]; 10 µM, 3 dpf, D1) | distance moved relative to vehicle control (larval zebrafish [2]; 10 µM, 3 dpf, L1) | distance moved relative to vehicle control (larval zebrafish [2]; 10 µM, 3 dpf, L2) | L1-D1 transition relative to vehicle control (larval zebrafish [2]; 10 µM, 4 dpf) | L1-D1 transition relative to vehicle control (larval zebrafish [2]; 10 µM, 5 dpf) | distance moved relative to vehicle control (larval zebrafish [2]; 10 µM, 5 dpf, L1) | distance moved relative to vehicle control (larval zebrafish [2]; 10 µM, 5 dpf, D2) | further results |
| --- | --- | --- | --- | --- | --- | --- | --- | --- | --- | --- | --- | --- | --- | --- | --- | --- | --- | --- | --- | --- |
| Clc1ccc(-c2ccc(Cl)cc2Cl)cc1 [PCB 28] | above 10 µM | 170.60 ± 13.28 | 0.67 | limited | traveling less | significantly less | significantly less | 10.83 | – | – | – | – | – | – | – | – | – | – | – | increase of L1-D1 transition relative to vehicle controls (larval zebrafish [2]; 0.1 µM, 4 dpf): 0.9 mm; distance moved relative to vehicle control (larval zebrafish [2]; 0.1 µM, 4 dpf, D1): significantly more; increase of L1-D1 transition relative to vehicle controls (larval zebrafish [2]; 0.3 µM, 4 dpf): 1.3 mm; distance moved relative to vehicle control (larval zebrafish [2]; 0.3 µM, 4 dpf, D1): significantly more; increase of L1-D1 transition relative to vehicle controls (larval zebrafish [2]; 1 µM, 4 dpf): 0.87 mm; distance moved relative to vehicle control (larval zebrafish [2]; 1 µM, 4 dpf, D1): significantly more; increase of L1-D1 transition relative to vehicle controls (larval zebrafish [2]; 3 µM, 4 dpf): 0.9 mm; distance moved relative to vehicle control (larval zebrafish [2]; 3 µM, 4 dpf, D1): significantly more; increase of L1-D1 transition relative to vehicle controls (larval zebrafish [2]; 10 µM, 4 dpf): 0.8 mm; distance moved relative to vehicle control (larval zebrafish [2]; 10 µM, 5 dpf, L2): moved less |
| Clc1ccc(-c2ccc(Cl)c(Cl)c2)c(Cl)c1 [PCB 66] | above 10 µM | – | > 50 | negligible; also recorded: limited | – | – | – | 14.39 | – | – | – | – | – | – | – | – | – | – | – | distance traveled relative to vehicle control (larval zebrafish [2]; 0.11 µM, L1): significantly decreased; distance traveled relative to vehicle control (larval zebrafish [2]; 1 µM, L1): significantly decreased |
| Clc1cccc(-c2c(Cl)ccc(Cl)c2Cl)c1Cl [PCB 84] | – | 437.50 ± 35.72 | 8.97 | – | significantly less movement | – | moved more | 28.93 | 6.97 | moved more | increased less | moved more | moved more | Increased | Increased | moved less | increased less | moved more | – | maximal effect compared to the DMSO control ([1]; concentrations above 3 µM): 400%; change in RYR activity at low concentrations ([1]; concentrations below 3 µM, biphasic effect): significant reduction; distance moved relative to vehicle control (larval zebrafish [2]; 0.1 µM, 3 dpf, D1): moved less; distance moved relative to vehicle control (larval zebrafish [2]; 0.1 µM, 3 dpf, D2): moved less; distance moved relative to vehicle control (larval zebrafish [2]; 0.1 µM, 3 dpf, L2): moved less; L1-D1 transition relative to vehicle control (larval zebrafish [2]; 0.3 µM, 4 dpf): moved more; distance moved relative to vehicle control (larval zebrafish [2]; 0.3 µM, 5 dpf, L1): moved more; L1-D1 transition relative to vehicle control (larval zebrafish [2]; 1 µM, 4 dpf): moved more; distance moved relative to vehicle control (larval zebrafish [2]; 1 µM, 4 dpf, L1): significantly less movement |
| Clc1ccc(Cl)c(-c2c(Cl)ccc(Cl)c2Cl)c1 [PCB 95, 2,2',3,5',6-pentachlorobiphenyl] | – | 734.70 ± 49.87 | 3.79 | high | – | moved more | significantly more | 81.46 | 1.5 | moved more | significantly less | more | significantly more | significantly more | significantly more | decreased | decreased | more | significantly less | malformations after developmental exposure (larval zebrafish [3]): caused malformations; increase in [3H]Ry-binding ([1]; measure of channel activation): ~800%; L1-D1 transition relative to vehicle control (larval zebrafish [2]; 0.1 µM, 4 dpf): moved more; distance moved relative to vehicle control (larval zebrafish [2]; 10 µM, 4 dpf, D1): significantly less; distance moved relative to vehicle control (larval zebrafish [2]; 10 µM, 4 dpf, L1): significantly more; distance moved relative to vehicle control (larval zebrafish [2]; 10 µM, 4 dpf, L2): significantly more; distance moved relative to vehicle control (larval zebrafish [2]; 10 µM, 5 dpf, D1): significantly less |
| Clc1cc(Cl)c(-c2ccc(Cl)c(Cl)c2Cl)cc1Cl [PCB 138] | – | 388.20 ± 74.93 | 9.6 | moderate | – | moved more | moved more | 29.32 | 4.18 | – | – | – | moved more | – | – | – | – | – | moved less | increase of L1-D1 transition compared to the control group (larval zebrafish [2]; 0.3 µM, 4 dpf): 0.821; distance moved relative to vehicle control (larval zebrafish [2]; 1 µM, 3 dpf, D1): moved more; increase of L1-D1 transition compared to the control group (larval zebrafish [2]; 1 µM, 4 dpf): 0.68; distance moved relative to vehicle control (larval zebrafish [2]; 3 µM, 3 dpf, D1): moved more; decrease of L1-D1 transition compared to controls (larval zebrafish [2]; 3 µM, 5 dpf): 0.7; decrease of L1-D1 transition compared to the control group (larval zebrafish [2]; 10 µM, 4 dpf, not quite statistically significant (p = 0.06)): 0.6 |
